The results in this text go back to patent US8545884B2, “Solid pharmaceutical formulations comprising BIBW 2992” (Boehringer Ingelheim International GmbH, priority 2008, dated 2013).

Data set [1] in a line: Tablet content uniformity (RSD) before and after roller compaction and sieving. The conditions noted are these: roller compaction, Sieve A. It is filed as physicochemical.
Data set [2] is described as follows: Chemical stability of the API against moisture / wet granulation. In kind it is physicochemical.
A short description of data set [3]: Bulk densities (poured, tapped; Ph. Eur. 2.9.15) and Hausner factor of powders. To be noted: for Hausner Factor (ρT/ρP) / Poured density (ρP) / Tapped density (ρT): un-milled drug substance. In kind it is physicochemical. The protocol:
Bulk density is measured according to Ph. Eur. 2.9.15 (European Pharmacopoeia, 4. Ed.) as poured density. The tapped density is measured according to Ph. Eur. 2.9.15 (see also Voigt R., Lehrbuch der pharmazeutischen Technologie [Textbook of Pharmaceutical Technology], Verlag Chemie, 5th Edition, page 148). The Hausner factor is a measure for the flowability/compressibility of powders and ideally should be close to 1. […] They range from 0.12 to 0.40 g/mL, caused by different needle lengths (Table 2). The roller compaction step was introduced for densification of the material (see Table 3), which may have • a variability of the poured density between […] (see Table 1) and • a Hausner Factor between 1.05 and 1.61 (see Table 1).

Data set [4] is described as follows: Phase I pharmacokinetics of BIBW 2992 together with docetaxel in cancer patients. To be noted: once daily dosing, visual inspection. In kind it is in vivo, human (cancer patients).
Data set [5] can be described thus: Phase I pharmacokinetics of BIBW 2992 monotherapy in cancer patients with advanced solid tumors. In kind it is in vivo, human (cancer patients). The procedure: In four Phase I studies in cancer patients with various advanced solid tumors the pharmacokinetik (PK) characteristics of BIBW 2992 were analyzed. Representative for all of the studies and all the tested dose groups (10 to 100 mg) the 40 mg dose group from one trial is being described in more detail. […] BIBW 2992 plasma concentrations increased after oral administration with peak plasma concentrations mostly around 2-5 hours after dosing. Plasma concentrations declined within the next hours (up to 9 h after dosing), displaying a first disposition phase.
The variability (gCV=geometric coefficient of variation) of the plasma concentrations of the active substance at the different time points was 109-159% up to 9 hours after drug administration but 66.9 to 72.9% at later time points (24 hours after drug administration).

The mark [6] stands for this setting: batch 1, roller compaction, Sieve A, Sieve B.
[7] abbreviates: batch 1, roller compaction, Sieve A, Sieve C.
Setting [8] is: batch 1, roller compaction, Sieve A, no sieving 2.
Setting [9] is: batch 2, roller compaction, Sieve A, Sieve C.
Where [10] appears, read: batch 3, roller compaction, Sieve A, Sieve C.
Setting [11] is: 10 to 100 mg, qd dosing, single dose and steady state.

For the compound `CN(C)C/C=C/C(=O)Nc1cc2c(Nc3ccc(F)c(Cl)c3)ncnc2cc1O[C@H]1CCOC1.O=C(O)/C=C\C(=O)O.O=C(O)/C=C\C(=O)O` [BIBW 2992 MA2], the “RSD- Tablet Content (High Dose)” value in data set [1] (batch 1, Sieve B) was determined as 1.4%; in data set [1] (batch 1, Sieve C), 1.0%; in data set [1] (batch 1, no sieving 2), 3.4%; in data set [1] (batch 2, Sieve C), 0.8%; in data set [1] (batch 3, Sieve C), 1.7%. Besides, the “RSD- Tablet Content (Low Dose)” value amounted to 3.6% in data set [1] (batch 1, Sieve B); 1.4% in data set [1] (batch 1, Sieve C); 7.7% in data set [1] (batch 1, no sieving 2). Besides, the “chemical stability against moisture” value in data set [2] (drug substance as described in WO 2005/037824) is recorded as “susceptibility against moisture”. For the same compound, the “stability during wet granulation” value in data set [2] (wet granulation processing) is “underwent hydrolytical decomposition and further degradation reaction”. For the same compound, the Poured density is reported as 0.12 g/mL in data set [3] (Table 3, drug substance batch 1, before processing); 0.31 g/mL in data set [3] (Table 3, drug substance batch 2, before processing); 0.40 g/mL in data set [3] (Table 3, drug substance batch 3, before processing). Also, the “Poured density of Final Blend” value in data set [3] (batch 1, no roller compaction, no sieving) was 0.40 g/mL; in data set [3] (setting [6]) it was 0.53 g/mL; in data set [3] (setting [7]) it was 0.53 g/mL; in data set [3] (setting [8]) it was 0.56 g/mL; in data set [3] (setting [9]), 0.60 g/mL; in data set [3] (setting [10]), 0.60 g/mL. In addition, the “Poured density of Compacted Intermediate of BIBW 2992 MA2” value in data set [3] (setting [6]) was 0.29 g/mL; in data set [3] (setting [7]), 0.24 g/mL; in data set [3] (setting [8]) it was 0.33 g/mL; in data set [3] (setting [9]) it was 0.41 g/mL; in data set [3] (setting [10]), 0.36 g/mL. Further, the “Hausner Factor (ρT/ρP)” value is recorded as 1.20 in data set [3] (batch 0), 1.33 in data set [3] (batch 1), 1.08 in data set [3] (batch 2) and 1.26 in data set [3] (batch 3). Also, the “Poured density (ρP)” value in data set [3] (batch 0) was 0.23 g/mL; in data set [3] (batch 1), 0.12 g/mL; in data set [3] (batch 2) it was 0.40 g/mL; in data set [3] (batch 3), 0.31 g/mL. In addition, the “Tapped density (ρT)” value is 0.28 g/mL in data set [3] (batch 0), 0.16 g/mL in data set [3] (batch 1), 0.43 g/mL in data set [3] (batch 2) and 0.39 g/mL in data set [3] (batch 3).
Regarding `CN(C)C/C=C/C(=O)Nc1cc2c(Nc3ccc(F)c(Cl)c3)ncnc2cc1O[C@H]1CCOC1` [BIBW 2992, 4-[(3-chloro-4-fluorophenyl)amino]-6-{[4-(N,N-dimethylamino)-1-oxo-2-buten-1-yl]amino}-7-((S)-tetrahydrofuran-3-yloxy)-quinazoline], the “AUC and Cmax dose dependence” value in data set [4] was “no sign for a deviation from a dose proportional increase”. Also, the “variability (gCV) of the plasma concentrations” value in data set [5] (40 mg dose group, n=17, time points up to 9 hours after drug administration) was 109-159%. The disposition kinetics result in data set [5] (40 mg once daily oral, day 27 of Treatment Period 1) was “at least biexponential disposition kinetics”. In addition, the “time of peak plasma concentrations after dosing” value in data set [5] (40 mg once daily oral, day 27 of Treatment Period 1, n=17) was in the range of 2 to 5 h. Further, in data set [5] (setting [11]), the “gMean AUCτ,ss dose dependence” value is recorded as “increased in a dose-proportional manner” and the “gMean Cmax,ss dose dependence” value is on record as “increased in a dose-proportional manner”. Moreover, the “Cpre,ss (plasma concentration before drug administration at steady state) dose dependence” value in data set [5] (various clinical trials, visual inspection, data not shown) is listed as “no deviation from dose-proportionality”.
